Test results reported in publication PMC5090206, “Fluselenamyl: A Novel Benzoselenazole Derivative for PET Detection of Amyloid Plaques (Aβ) in Alzheimer’s Disease” (Scientific Reports, 2016).

Experiments:
[1] = biological target: T1, Aβ plaques (Homo sapiens, UniProt P05067); assay: MicroPET/CT imaging in APP/PS1 and WT mice; assay type: in vivo; conditions: for distribution volume ratio (DVR): cortical ROI, cerebellum reference, RefLogan
Protocol: To directly access the potential of [^18F]-9 to bind Aβ plaques in vivo, we performed microPET/CT imaging in age-matched APP^+/−/PS1^+/− mice (n = 3) compared their WT counterparts, 5 min-2 h post tail-vein injection. […] Time activity curves (TAC) also indicated higher retention of activity within transgenic mice brains compared with their WT counterparts (Fig. 10). Additionally, ROI (cortical regions) were also analyzed using linearized method with a reference region (cerebellum) via Reference Logan plot (RefLogan), and distribution volume ratios (DVR) were obtained. The analysis indicated a statistically significant DVR value of 1.18 for transgenic mice brain compared with that of 1.03 for WT brains. These smaller differences in DVR values of targeted regions in transgenic mice compared with that of WT counterparts could also be attributed to a lack of true negative reference region in aged PS1/APP mice[57]. […] The differences between these tracers in this rodent model could be attributed to ability of [^18F]-9 for targeting both diffuse and fibrillary plaques. To further evaluate, whether or not [^18F]-9 offers significant advantage over other approved tracers, the agent would need to be further investigated for its performance in other AD rodent models (APP23 and Tg2576).
Scientific Reports Version of August 4, 2016 approved guidelines. 15-month-old APP+/-/PS1+/- mice were imaged using intravital multiphoton microscopy to assess pharmacokinetic profiles of the 5. The thinned-skull cranial windows were prepared on the day prior to imaging, as previously described16-18. Briefly, mice were anesthetized under volatile isoflurane (2% induction, 1.5% maintenance), the scalp and periosteum were removed to expose the skull.
A speed drill and microsurgical blade (Surgistar) were used to thin the skull until the skull window ([…]
(§1) For imaging 5 labeled plaques, two-photon fluorescence was generated with 800 nm excitation, and fluorescent emission was detected in the range of 435-485nm. […]

[2] = biological target: T1, Aβ plaques; assay: Real time multiphoton imaging in APP+/−/PS1+/− mice; assay type: in vivo; conditions: 2 mg/kg intravenous
Description: For assessing viability of molecules as imaging probes in vivo[48], various imaging modalities, such as nuclear imaging (PET/SPECT), optical imaging, and MRI have been used to investigate simultaneously distribution kinetics and target-receptor specificity. While the resolution of PET and MRI allow in vivo imaging at relatively moderate resolution, the multiphoton microscopy enables evaluation of kinetics at a sub-micrometer resolution[49]. […] The generation of various transgenic (tg) animals overexpressing mutant human APP and/or PS1 and PS2, tg APP mice expressing ApoE isoforms including those for Tau offer attractive models for unravelling biochemical pathways prevalent in pathophysiology of AD[50]. […] Literature precedents indicate Aβ deposition by 2 months of age, with gradual quantitative increase at six months^55. […] Compared with barely detectable auto-fluorescence levels prior to imaging transgenic APP^+/−/PS1^+/− mice (Fig. 8, first panel), bright fluorescence appeared almost instantaneously following administration of 5. Fluorescence first appeared in large and small blood vessels within the brain. Within minutes (10 min), the brain parenchyma was uniformly bright in fluorescence, and Aβ deposits were labeled. […]
as §1

T1 sequence (P05067 672-711 limits assumed): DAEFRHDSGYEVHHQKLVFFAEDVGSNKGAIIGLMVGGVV

## CN(C)c1ncc(/C=C\c2nc3cc(OCC[18F])ccc3[se]2)cn1 [[^18F]-9]
[1]; APP+/−/PS1+/− vs WT mice, n = 3, p < 0.05
  higher retention in transgenic mice brains vs WT: 1.2 folds
[1]; WT brains
  distribution volume ratio (DVR): 1.03
[1]; transgenic mice brain
  distribution volume ratio (DVR): 1.18

## CN(C)c1ncc(/C=C\c2nc3cc(OCCF)ccc3[se]2)cn1 [compound 5, (Z)-5-(2-(5-(2-fluoroethoxy)benzo[d][1,3]selenazol-2-yl)vinyl)-N,N-dimethylpyrimidin-2-amine]
[2]
  time at which labeling of parenchymal plaques peaked: approximately 10 min
